± gives the uncertainty stated by the source.
Assay: TIMS collision cross section in N2 (TIMS CCS N2); higher = larger gas-phase ion size
Settings: drift gas: N2 (99.4% N2, 0.6% O2), calibration: Stow et al. 2017 values for Agilent ESI-L Low Concentration Tune Mix, ionization: negative ESI

| Compound | TIMS collision cross section in N2 (ion species: [2M-H]-) | TIMS collision cross section in N2 (ion species: [M-H]-) | TIMS collision cross section in N2 (ion species: [M-3H]-) | TIMS collision cross section in N2 (ion species: [M-H+Na+HCO2H]-) |
| --- | --- | --- | --- | --- |
| O=c1c(-c2ccc(O)cc2)coc2cc(O)c(O)cc12 [6,7,4'-Trihydroxyisoflavone] | 249.43 ± 0.37 Å² | 159.49 ± 0.16 Å² |  |  |
| O=c1c(O)c(-c2cccc(O)c2O)oc2ccc(O)cc12 [3,6,2',3'-Tetrahydroxyflavone] |  | 161.7 ± 0.14 Å² | 161.13 ± 0.17 Å² |  |
| COc1ccc(-c2coc3cc(O)ccc3c2=O)cc1 [Formononetin] | 257.46 ± 0.31 Å² | 163.76 ± 0.32 Å² |  |  |
| C[C@H]1[C@H](C)CC[C@]2(C(=O)O)CC[C@]3(C)C(=CC[C@@H]4[C@@]5(C)CC[C@H](O)C(C)(C)[C@@H]5CC[C@]43C)[C@H]12 [Ursolic acid] |  | 218.03 ± 0.74 Å² |  | 229.46 ± 0.98 Å² |
| O=c1cc(-c2ccc(O)c(O[C@@H]3OC(CO)[C@@H](O)[C@@H](O)C3O)c2)oc2cc(O[C@@H]3OC(CO)[C@@H](O)[C@@H](O)C3O)cc(O)c12 (some centres not stated) [Luteolin-7,3'-di-O-glucoside] |  | 236.98 ± 0.087 Å² |  |  |
| COc1ccc(CCC(=O)c2c(O)cc(O[C@@H]3O[C@H](CO)[C@@H](O)[C@H](O)[C@H]3O[C@@H]3O[C@@H](C)[C@H](O)[C@@H](O)[C@H]3O)cc2O)cc1O [neohesperidin dihydrochalcone] |  | 232.21 ± 0.35 Å² |  |  |
| COc1ccc(-c2oc3cc(O)cc(O)c3c(=O)c2O)cc1 [Kaempferide] |  | 167.04 ± 0.26 Å² |  |  |
| CCCCCCCCCCCCCCC(=O)O [Pentadecanoic acid] |  | 166.43 ± 0.15 Å² |  |  |
